Reference: patent publication US20230192765A1, “PEPTIDES TARGETING SHP2 AND USES THEREOF” (UNIVERSITÀ DEGLI STUDI DI ROMA "TOR VERGATA", priority 2020, published 2023)
*1 amine or outer side, *2 acyl side, *3 side chain or, on linkers, in order; H or OH if unused. Where a SMILES comes first, the peptide text is derived from it. [ ]: non-standard residue; d: D form. 5,6‑carboxyfluorescein = CF, 5,6-carboxyfluorescein label; pY = N[C@@H](Cc1ccc(OP(=O)(O)O)cc1)C(=O)O; Cysteamide = C(CS[*:3])N[*:1]

Legend:
NIH3T3 cells = assay: Peptide toxicity in the cell uptake experiments (Sytox); format: cell-based; conditions: Pep1 at 10 µM
Procedure: Cell viability in the FACS experiment was determined by using Sytox fluorescence.
Cells were incubated for different times and then washed, collected and stained with SYTOX blue (1 mM, Invitrogen™) to identify the viable population and the green fluorescence of CFP9W5 was recordered to measure peptide uptake. Data were analysed with Kaluza Analysis Software (Beckman Coulter).

N-SH2 domain of SHP2 [1] = target: T1, N-SH2 domain of SHP2 (Homo sapiens, UniProt Q06124); assay: Fluorescence anisotropy displacement assay; format: binding
T1 construct: constructs of the N-SH2 (residues 2-111), C-SH2 (109-217) and PTP (212-528) domains; His6 (esaHis); made in house; host or cells: E. coli (DE3) Rosetta2
T1 sequence (Q06124 2-111): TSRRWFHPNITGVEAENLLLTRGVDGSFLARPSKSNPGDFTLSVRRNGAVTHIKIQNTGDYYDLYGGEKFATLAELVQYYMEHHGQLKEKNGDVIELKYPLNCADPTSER

[2] = target: T2, SHP2 PTP domain (SHP2 construct lacking the N-SH2 domain) (Homo sapiens, UniProt Q06124); assay: Malachite green phosphatase assay, dephosphorylation of phosphopeptides; format: biochemical; conditions: phosphopeptide 100 µM; enzyme 95 nM
T2 construct: the isolated PTP domain preceded by the C-SH2 domain (residues 105-528); His6 (esaHis); made in house; host or cells: E. coli (DE3) Rosetta2
T2 sequence (Q06124 105-528): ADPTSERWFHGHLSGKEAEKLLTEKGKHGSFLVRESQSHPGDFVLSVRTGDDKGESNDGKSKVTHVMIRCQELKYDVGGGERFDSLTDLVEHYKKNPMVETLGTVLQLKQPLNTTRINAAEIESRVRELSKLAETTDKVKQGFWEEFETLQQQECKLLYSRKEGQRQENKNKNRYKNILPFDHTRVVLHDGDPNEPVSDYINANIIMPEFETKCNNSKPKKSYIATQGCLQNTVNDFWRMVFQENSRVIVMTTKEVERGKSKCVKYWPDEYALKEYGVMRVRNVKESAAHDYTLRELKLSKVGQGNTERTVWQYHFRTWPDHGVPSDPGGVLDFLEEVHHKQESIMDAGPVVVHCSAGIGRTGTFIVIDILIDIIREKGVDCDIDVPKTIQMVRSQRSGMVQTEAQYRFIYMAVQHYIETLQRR
Procedure: A SHP2 construct lacking the N-SH2 domain (i.e. the first 104 residues) was used at a 95 nM concentration. Phosphopeptides were added at a 100 µM concentration and the phosphate released was measured at different times. From the linear region of the phosphate versus time curve, the variation in absorbance at 655 nm in 1 min, due to phosphate released, was calculated and plotted.
The ability of SHP2 to dephosphorylate the phosphopeptides was evaluated through a malachite green phosphatase assay (PTP assay kit 1 Millipore, MA, USA). The BTAM peptide and the following monophosphorylated peptides derived from known SHP2 substrates were used for comparison: DKQVEpYLDLDL (SEQ ID NO:6) (GAB1Y657), EEENIpYSVPHD (SEQ ID NO:7) (p190A/RhoGAPY1105), and VDADEpYLIPQQ (SEQ ID NO:8) (EGFRY1016) (Primm) [Sun et al., 2009; Ren et al., 2011]. SHP2Δ104 or PTP (2.38 pmol) were incubated with 100 µM of each phosphopeptide (total volume 25 µl) for different times. The reaction was stopped by adding 100 µl of malachite green solution. After 15 min, absorbance was read at 655 nm using a microplate reader, and compared with a phosphate standard curve to determine the release of phosphate. Data obtained in the linear region of the curve were normalized on the reaction time (1 min).

N-SH2 domain of SHP2 [3] = target: T1, N-SH2 domain of SHP2; assay: Fluorescence anisotropy direct binding assay, N-SH2 domain; conditions: for standard free energy of binding: assuming a 1 M standard state
Procedure: Anisotropy measurements were carried out using a Horiba Fluoromax 4 spectrofluorimeter.
For the binding assays, the requested peptide amount (1 nM or 0.1 nM) was diluted in buffer (HEPES 10 mM, NaCl 150 mM, EDTA 1 mM, TCEP 1 mM, fluorescence buffer henceforth) and its anisotropy signal was recorded. The peptide was then titrated with increasing protein amounts, until the anisotropy signal reached a plateau at its maximum value, or up to a protein concentration where protein aggregation and consequent light scattering affected the anisotropy values (usually above 1 µM). The measurements of CF-labeled peptides were carried out using an excitation wavelength of 470 nm and collecting the anisotropy values at an emission wavelength of 520 nm. A 495 nm emission filter was used. For the Cy3-labeled peptides, excitation and emission wavelengths of 520 and 560 nm were used.
The Kd values were obtained fitting the data with the following equation, described in Van der Weert 2011, which avoids the need for the commonly used (but often unjustified) approximation of the concentration of unbound protein with the total concentration:
Here, [P]T and [L]T are the total protein and ligand concentrations, while r, ro and rmax are the anisotropy values at a given protein concentration, in the absence of protein and when the peptide is completely bound, respectively.

## CC(=O)N[C@@H](CCCCN)C(=O)N[C@@H](CCC(=O)O)C(=O)N[C@H](C(=O)N[C@@H](Cc1c[nH]c2ccccc12)C(=O)N[C@@H](Cc1c[nH]c2ccccc12)C(=O)N[C@@H](CCC(=O)O)C(=O)N[C@H](C(=O)N[C@@H](Cc1c[nH]c2ccccc12)C(=O)N[C@@H](Cc1c[nH]c2ccccc12)C(=O)N[C@H](C(=O)N[C@@H](CCC(=O)O)C(=O)N[C@@H](Cc1c[nH]c2ccccc12)C(=O)N[C@@H](CO)C(=O)N[C@@H](CCC(N)=O)C(=O)N1CCC[C@H]1C(=O)N[C@@H](CCCCN)C(=O)N[C@@H](CCCCN)C(=O)N[C@@H](CCCCN)C(=O)N[C@@H](CCCNC(=N)N)C(=O)N[C@@H](CCCCN)C(=O)N[C@H](C(=O)NCCS)C(C)C)[C@@H](C)O)[C@@H](C)O)[C@@H](C)O [Pep1, reference compound] (Ac-KETWWETWWTEWSQPKKKRKV-Cysteamide)
NIH3T3 cells
  toxicity: negligible

## CC[C@H](C)[C@H](NC(=O)[C@H](Cc1ccc(OP(=O)(O)O)cc1)NC(=O)[C@H](CC(N)=O)NC(=O)[C@H](CC(C)C)NC(C)=O)C(=O)N[C@@H](CC(=O)O)C(=O)N[C@@H](CC(C)C)C(=O)N[C@@H](CC(=O)O)C(=O)N[C@@H](CC(C)C)C(N)=O [Peptide P8, LN-pY-IDLDL] (Ac-LN[pY]IDLDL-NH2)
N-SH2 domain of SHP2 [1]
  IC50: 47 ± 4 nM
  Ki: 25 ± 4 nM
N-SH2 domain of SHP2 [1]; [CF-P9]=1.0 nM, [N-SH2]= 40 nM, relative to P9
  effect of sequence length on the binding affinity: No significant loss in affinity
[2]
  dephosphorylation by SHP2: dephosphorylation was indeed observed, although to a lower extent than for other phosphopeptides

## CC[C@H](C)[C@H](NC(=O)[C@H](Cc1ccc(OP(=O)(O)O)cc1)NC(=O)[C@H](CC(N)=O)NC(=O)[C@H](CC(C)C)NC(C)=O)C(=O)N[C@@H](CC(=O)O)C(=O)N[C@@H](CC(C)C)C(=O)N[C@@H](CCC(=O)O)C(=O)N[C@@H](Cc1c[nH]c2ccccc12)C(N)=O [Peptide P8E4W5, LN-pY-IDLEW] (Ac-LN[pY]IDLEW-NH2)
N-SH2 domain of SHP2 [1]
  IC50: 11 ± 1 nM
  Ki: 5 ± 2 nM

## CC[C@H](C)[C@H](NC(=O)[C@H](Cc1ccc(OP(=O)(O)O)cc1)NC(=O)[C@H](CC(N)=O)NC(=O)[C@H](CC(C)C)NC(C)=O)C(=O)N[C@@H](CC(=O)O)C(=O)N[C@@H](CC(C)C)C(=O)N[C@@H](CC(=O)O)C(=O)N[C@@H](Cc1ccccc1)C(N)=O [Peptide P8F5, LN-pY-IDLDF] (Ac-LN[pY]IDLDF-NH2)
N-SH2 domain of SHP2 [1]
  IC50: 16 ± 1 nM
  Ki: 9 ± 2 nM

## CC[C@H](C)[C@H](NC(=O)[C@H](Cc1ccc(OP(=O)(O)O)cc1)NC(=O)[C@H](CC(N)=O)NC(=O)[C@H](CC(C)C)NC(C)=O)C(=O)N[C@@H](CC(=O)O)C(=O)N[C@@H](CC(C)C)C(=O)N[C@@H](CC(=O)O)C(=O)N[C@@H](Cc1c[nH]c2ccccc12)C(N)=O [Peptide P8W5, LN-pY-IDLDW]
[2]
  dephosphorylation by SHP2: dephosphorylation was indeed observed, although to a lower extent than for other phosphopeptides

## CF-GLN- Y-IDLDL ({5,6‑carboxyfluorescein}-GLNYIDLDL-NH2) [CF-P9Y0]
N-SH2 domain of SHP2 [3]
  standard free energy of binding: -7.07 ± 0.048 kcal/mol
N-SH2 domain of SHP2 [3]; unphosphorylated vs phosphorylated labeled peptide
  affinity lower than phosphorylated peptide: approximately 100 times

## CF-GLN-pY-IDLDL ({5,6‑carboxyfluorescein}-GLN[pY]IDLDL-NH2) [CF-P9]
N-SH2 domain of SHP2 [3]
  standard free energy of binding: -9.94 ± 0.024 kcal/mol
